Test results published in ChEMBL document CHEMBL3046936, “In vitro inhibition studies of phytoene desaturase by bleaching ketomorpholine derivatives” (J Agric Food Chem, 2001).
Active and inactive are the calls of the source. The rule behind the calls is not given here.

What was measured:
Senna obtusifolia = test: Preemergence herbicidal activity against Senna obtusifolia (sicklepod) after 20 days; type: functional
Galium aparine = test: Pre-emergence herbicidal activity against Galium aparine after 20 days; type: functional
Xanthium strumarium = test: Pre-emergence herbicidal activity against Xanthium strumarium (cocklebur) after 20 days; type: functional
Ipomoea hederacea = test: Pre-emergence herbicidal activity against Ipomoea hederacea (ivy-leaved morning glory) after 20 days; type: functional
Amaranthus retroflexus = test: Pre-emergence herbicidal activity against Amaranthus retroflexus after 20 days; type: functional
Abutilon theophrasti = test: Preemergence herbicidal activity against Abutilon theophrasti (velvetleaf) after 20 days; type: functional
Chenopodium album = test: Pre-emergence herbicidal activity against Chenopodium album after 20 days; type: functional
[1] = biological target: 15-cis-phytoene desaturase (Synechococcus elongatus (strain PCC 7942) (Anacystis nidulans R2), UniProt P26294); test: Inhibition of Synechococcus PCC 7942 phytoene desaturase expressed in Escherichia coli JM 101 by HPLC analysis; settings: read-out: I50
Chain of 15-cis-phytoene desaturase (P26294 whole entry): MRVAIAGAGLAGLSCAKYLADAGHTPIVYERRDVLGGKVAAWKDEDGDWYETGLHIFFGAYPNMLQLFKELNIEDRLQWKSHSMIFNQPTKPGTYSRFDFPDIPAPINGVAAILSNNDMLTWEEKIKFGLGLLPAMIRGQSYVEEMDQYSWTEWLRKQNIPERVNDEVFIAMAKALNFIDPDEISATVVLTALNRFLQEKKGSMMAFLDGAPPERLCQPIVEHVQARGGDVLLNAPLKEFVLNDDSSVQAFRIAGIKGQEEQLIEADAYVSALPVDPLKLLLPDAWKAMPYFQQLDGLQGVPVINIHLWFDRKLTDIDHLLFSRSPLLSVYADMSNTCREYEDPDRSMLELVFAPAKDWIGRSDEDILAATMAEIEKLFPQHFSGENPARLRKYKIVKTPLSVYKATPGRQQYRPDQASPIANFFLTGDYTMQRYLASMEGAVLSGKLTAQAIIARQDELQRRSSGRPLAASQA

[2] = biological target: 15-cis-phytoene desaturase (Synechococcus elongatus (strain PCC 7942) (Anacystis nidulans R2)) (UniProt P26294); test: Non-competitive inhibition of Synechococcus PCC 7942 phytoene desaturase expressed in Escherichia coli JM 101 by Lineweaver-Burk plot analysis
Chain of 15-cis-phytoene desaturase (Synechococcus elongatus (strain PCC 7942) (Anacystis nidulans R2)) (P26294 whole entry): as above

[3] = biological target: 15-cis-phytoene desaturase (Synechococcus elongatus (strain PCC 7942) (Anacystis nidulans R2)) (UniProt P26294); test: Inhibition of Synechococcus PCC 7942 phytoene desaturase expressed in Escherichia coli JM 101 assessed as decrease in zeta-carotene content by HPLC analysis
[4] = Ratio of ED50 for Xanthium strumarium to ED50 for Cassia obtusifolia; type: functional
[5] = Ratio of ED50 for Xanthium strumarium to ED50 for Chenopodium album; type: functional
[6] = Ratio of ED50 for Xanthium strumarium to ED50 for Galium aparine; type: functional

Structure (SMILES) | IC50 [1] [µM] | inhibition [2] | inhibition [3] | ED50 (Senna obtusifolia) [g/ha] | ED50 (Galium aparine) [g/ha] | ED50 (Xanthium strumarium) [g/ha] | ED50 (Ipomoea hederacea) [g/ha] | ED50 (Amaranthus retroflexus) [g/ha] | ED50 (Abutilon theophrasti) [g/ha] | ED50 (Chenopodium album) [g/ha] | Ratio ED50 [4] | Ratio ED50 [5] | Ratio ED50 [6]
C[C@H]1CO[C@@H](Cc2cccc(C(F)(F)F)c2)C(=O)N1 | 3.8 |  |  | 1550 | 1500 | 2300 | 1500 | 600 | 500 | 500 |  |  | 
C[C@H]1CO[C@H](Cc2cccc(C(F)(F)F)c2)C(=O)N1 | 0.17 | Active | Active | 200 | 130 | 340 | 130 | 50 | 50 | 25 |  |  | 
C[C@@H]1CO[C@@H](Cc2cccc(C(F)(F)F)c2)C(=O)N1 | 19 |  |  | >10000 | 4000 | >10000 | 4000 | >10000 |  | >10000 |  |  | 
CN1CCOC(Cc2cccc(C(F)(F)F)c2)C1=O (racemic) | > 100 |  |  | 500 | 500 | 8900 | 500 | 1250 | 1400 | 450 | 15 | 15 | 15
CN1CCOC(c2cccc(C(F)(F)F)c2)C1=O (racemic) | > 100 |  |  | >10000 | >10000 | 9500 | >10000 | >10000 | 5500 | 10000 |  |  | 

Further lines, with some results ahead:

IC50 [1] [µM] | inhibition [2] | inhibition [3] | Structure (SMILES) | ED50 (Senna obtusifolia) [g/ha] | ED50 (Galium aparine) [g/ha] | ED50 (Xanthium strumarium) [g/ha] | ED50 (Ipomoea hederacea) [g/ha] | ED50 (Amaranthus retroflexus) [g/ha] | ED50 (Abutilon theophrasti) [g/ha] | ED50 (Chenopodium album) [g/ha] | Ratio ED50 [4] | Ratio ED50 [5] | Ratio ED50 [6]
3.2 |  |  | O=C1NCCOC1SCc1cccc(C(F)(F)F)c1 (racemic) | >10000 | >10000 | >10000 | >10000 | >10000 | >10000 | >10000 |  |  | 
6.5 |  |  | O=C1NCCOC1Cc1cccc(C(F)(F)F)c1 (racemic) | 350 | 380 | 800 | 380 | 80 | 150 | 140 |  |  | 
8.5 |  |  | O=C1NCCOC1Sc1cccc(C(F)(F)F)c1 (racemic) | 2500 | 4800 | >10000 | 4800 | 780 | 1000 | 850 |  |  | 
